Data: patent US9771337B2, “Neprilysin inhibitors” (THERAVANCE BIOPHARMA R&D IP, LLC, priority 2011, dated 2017)

molecular target: T1, human NEP (Homo sapiens, UniProt P08473); assay: In vitro enzyme inhibition assay, inhibitor potency at human NEP; type: biochemical; settings: pKi values at human NEP; recombinant human NEP, fluorogenic peptide substrate 10 μM, 37° C.
T1 construct: purchased R&D Systems, Minneapolis, Minn; 1182-ZN
Method: The inhibitory activities of compounds at human and rat neprilysin (EC 3.4.24.11; NEP) and human angiotensin converting enzyme (ACE) were determined using in vitro assays as described below.
Recombinant human NEP and recombinant human ACE were obtained commercially (R&D Systems, Minneapolis, Minn., catalog numbers 1182-ZN and 929-ZN, respectively). The fluorogenic peptide substrate Mca-D-Arg-Arg-Leu-Dap-(Dnp)-OH (Medeiros et al. (1997) Braz. J. Med. Biol. Res. 30:1157-62; Anaspec, San Jose, Calif.) and Abz-Phe-Arg-Lys(Dnp)-Pro-OH (Araujo et al. (2000) Biochemistry 39:8519-8525; Bachem, Torrance, Calif.) were used in the NEP and ACE assays respectively.
The assays were performed in 384-well white opaque plates at 37° C. using the fluorogenic peptide substrates at a concentration of 10 μM in Assay Buffer (NEP: 50 mM HEPES, pH 7.5, 100 mM NaCl, 0.01% polyethylene glycol sorbitan monolaurate (Tween-20), 10 μM ZnSO4; ACE: 50 mM HEPES, pH 7.5, 100 mM NaCl, 0.01% Tween-20, 1 μM ZnSO4).
Test compounds were assayed over the range of concentrations from […] to 20 μM. Test compounds were added to the enzymes and incubated for 30 minute at 37° C. prior to initiating the reaction by the addition of substrate. Reactions were terminated after 20 minutes of incubation at 37° C. by the addition of glacial acetic acid to a final concentration of 3.6% (v/v).
Plates were read on a fluorometer with excitation and emission wavelengths set to 320 nm and 405 nm, respectively. Inhibition constants were obtained by nonlinear regression of the data using the equation (GraphPad Software, Inc., San Diego, Calif.): v=v0/[1+(I/K′)] where v is the reaction rate, v0 is the uninhibited reaction rate, I is the inhibitor concentration and K′ is the apparent inhibition constant.
Compounds of the invention were tested in this assay and found to have pKi values at human NEP as follows.

T1 sequence (P08473 whole entry): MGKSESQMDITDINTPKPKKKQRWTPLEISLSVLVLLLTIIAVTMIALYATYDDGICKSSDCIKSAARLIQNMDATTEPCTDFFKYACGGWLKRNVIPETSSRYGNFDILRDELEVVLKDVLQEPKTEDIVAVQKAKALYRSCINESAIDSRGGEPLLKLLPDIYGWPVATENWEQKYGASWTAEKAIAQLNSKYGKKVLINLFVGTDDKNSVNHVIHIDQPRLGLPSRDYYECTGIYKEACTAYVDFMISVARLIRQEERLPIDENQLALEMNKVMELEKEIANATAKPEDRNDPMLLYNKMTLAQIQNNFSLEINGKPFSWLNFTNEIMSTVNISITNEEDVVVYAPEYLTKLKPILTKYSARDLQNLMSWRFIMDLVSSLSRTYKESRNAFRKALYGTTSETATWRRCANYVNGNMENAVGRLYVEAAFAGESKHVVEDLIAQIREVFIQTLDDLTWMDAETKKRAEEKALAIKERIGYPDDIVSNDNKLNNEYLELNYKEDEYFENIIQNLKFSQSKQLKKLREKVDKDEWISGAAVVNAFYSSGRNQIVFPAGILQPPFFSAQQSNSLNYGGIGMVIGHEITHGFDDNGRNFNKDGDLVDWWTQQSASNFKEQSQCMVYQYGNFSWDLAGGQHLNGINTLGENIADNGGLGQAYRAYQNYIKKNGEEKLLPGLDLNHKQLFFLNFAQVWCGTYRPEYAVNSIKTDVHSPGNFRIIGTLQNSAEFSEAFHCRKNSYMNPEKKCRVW

First: O=C(N[C@H](Cc1ccccc1Cl)[C@@H](O)C(=O)O)c1cc(-c2ccccc2Cl)on1 [Example 2-15, (2R,3R)-4-(2-Chloro-phenyl)-3-{[5-(2-chloro-phenyl)-isoxazole-3-carbonyl]-amino}-2-hydroxy-butyric acid]
Second: Cc1cc(-c2ccccc2C(=O)O)cc(C(=O)N[C@H](Cc2ccccc2Cl)[C@@H](O)C(=O)O)n1 [Example 2-1, 2-{2-[(1R,2R)-2-Carboxy-1-(2-chloro-benzyl)-2-hydroxy-ethylcarbamoyl]-6-methyl-pyridin-4-yl}-benzoic acid]
The Ki of the first is higher: 1.26 to 10 nM for the first, ≤ 1 nM for the second. The second binds more tightly here.

`O=C(N[C@H](Cc1ccccc1Cl)[C@@H](O)C(=O)O)c1cnc(O)cn1` [Example 2-34, (2R,3R)-4-(2-Chloro-phenyl)-2-hydroxy-3-[(5-hydroxy-pyrazine-2-carbonyl)-amino]-butyric acid] and `O=C(N[C@H](Cc1ccccc1Cl)[C@H](O)C(=O)O)c1cnn[nH]1` [Example 2-19, (2S,3R)-4-(2-Chloro-phenyl)-2-hydroxy-3-[(3H-[1,2,3]triazole-4-carbonyl)-amino]-butyric acid] fall in the same range of Ki: 12.6 to 100 nM for the first, 12.6 to 100 nM for the second.

`O=C(O)c1ccc(C(=O)N[C@H](Cc2ccccc2Cl)[C@@H](O)C(=O)O)o1` [Example 2-32, 5-[(1R,2R)-2-Carboxy-1-(2-chloro-benzyl)-2-hydroxy-ethylcarbamoyl]-furan-2-carboxylic acid] and `O=C(N[C@H](Cc1ccccc1Cl)[C@@H](O)C(=O)O)c1cn(Cc2ccccc2)nn1` [Example 2-20, (2R,3R)-3-[(1-Benzyl-1H-[1,2,3]triazole-4-carbonyl)-amino]-4-(2-chloro-phenyl)-2-hydroxy-butyric acid] fall in the same range of Ki: 12.6 to 100 nM for the first, 12.6 to 100 nM for the second.

First: O=C(N[C@H](Cc1ccccc1)[C@@H](O)C(=O)O)c1ccc(-c2ccccc2C(=O)O)cn1 [Example 5-24, 2-[6-((1R,2R)-1-Benzyl-2-carboxy-2-hydroxy-ethylcarbamoyl)-pyridin-3-yl]-benzoic acid]
Second: O=C(N[C@H](Cc1ccccc1)[C@@H](O)C(=O)O)c1ccc(-c2ccccc2C(=O)O)nc1 [Example 5-21, 2-[5-((1R,2R)-1-Benzyl-2-carboxy-2-hydroxy-ethylcarbamoyl)-pyridin-2-yl]-benzoic acid]
The Ki of the first is higher: 12.6 to 100 nM for the first, 1.26 to 10 nM for the second. The second binds more tightly here.

`O=C(N[C@H](Cc1ccccc1)[C@@H](O)C(=O)O)c1ccc2c(c1)N1CCCC1C(=O)N2` (stereo partly drawn) [Example 5-1, (2R,3R)-2-Hydroxy-3-[(4-oxo-1,2,3,3a,4,5-hexahydro-pyrrolo[1,2-a]quinoxaline-8-carbonyl)-amino]-4-phenyl-butyric acid] and `O=C(N[C@H](Cc1ccccc1)[C@@H](O)C(=O)O)c1ccc(C(=O)O)nc1` [Example 5-20, 5-((1R,2R)-1-Benzyl-2-carboxy-2-hydroxy-ethylcarbamoyl)-pyridine-2-carboxylic acid] fall in the same range of Ki: 12.6 to 100 nM for the first, 12.6 to 100 nM for the second.

`O=C(O)C[C@@H](Cc1ccccc1Cl)NC(=O)c1cc(Cl)c2nn[nH]c2c1` [Example 7-4, (R)-3-[(7-Chloro-3H-benzotriazole-5-carbonyl)-amino]-4-(2-chloro-phenyl)-butyric acid] and `O=C(O)C[C@@H](Cc1ccccc1Cl)NC(=O)c1ccc(-c2ccccc2C(=O)O)nn1` [Example 7-9, 2-{6-[(R)-2-Carboxy-1-(2-chloro-benzyl)-ethylcarbamoyl]-pyridazin-3-yl}-benzoic acid] fall in the same range of Ki: 12.6 to 100 nM for the first, 12.6 to 100 nM for the second.

First: CCc1nc2c(Cl)cc(C(=O)N[C@H](Cc3ccccc3)[C@@H](O)C(=O)O)cc2[nH]1 [Example 5-9, (2R,3R)-3-[(7-Chloro-2-ethyl-3H-benzoimidazole-5-carbonyl)-amino]-2-hydroxy-4-phenyl-butyric acid]
Second: O=C(N[C@H](Cc1ccccc1C(F)(F)F)[C@@H](O)C(=O)O)c1cnc2[nH]nnc2c1 [Example 3, (2R,3R)-2-Hydroxy-3-[(3H-[1,2,3]triazolo[4,5-b]pyridine-6-carbonyl)-amino]-4-(2-trifluoromethyl-phenyl)-butyric acid]
The Ki of the first is higher: 12.6 to 100 nM for the first, 1.26 to 10 nM for the second. The second binds more tightly here.
